Laboratory results: patent publication US9949479B2 (priority 2015, dated 2018)
Several values for one entry are separate records, joined by “and”; a condition that tells them apart may be missing. Equal entries are not always repeated. Where two headings read alike, the source gives them in different places.

Assays:
leaf blight [1] = assay type: in vivo; conditions: dose as in E154
wheat scab [2] = assay type: in vivo, Fusarium spp.; conditions: Serial 6: preparation 100 g/mu; jinggangmycin 0, metconazole 20 g ai./mu
wheat scab [3] = assay type: in vivo, Fusarium spp.; conditions: Serial 6: preparation 100; jinggangmycin 0, metconazole 20 g ai./mu
leaf blight [4] = assay type: in vivo
rust [5] = assay type: in vivo; conditions: dose as in E154
powdery mildew [6] = assay type: in vivo; conditions: Serial 6: preparation 100; jinggangmycin 0, metconazole 20 g ai./mu
wheat scab [7] = assay type: in vivo, Fusarium spp.
powdery mildew [8] = assay type: in vivo; conditions: Serial 6: preparation 100 g/mu; jinggangmycin 0, metconazole 20 g ai./mu
rust [9] = assay type: in vivo; conditions: Serial 6: preparation 100; jinggangmycin 0, metconazole 20 g ai./mu
[10] = assay type: in vivo, barley; conditions: dose as in E154
wheat scab [11] = assay type: in vivo, Fusarium spp.; remark: listed apart in the source
[12] = assay type: in vivo, wheat
[13] = parameters: species or system wheat; conditions: in vivo
rust [14] = assay type: in vivo
powdery mildew [15] = assay type: in vivo; conditions: dose as in E145
powdery mildew [16] = assay type: in vivo
leaf blight [17] = assay type: in vivo; remark: listed apart in the source
powdery mildew [18] = assay type: in vivo; conditions: Serial 9: preparation 100 g/mu; metconazole 20 g ai./mu alone
[19] = Serial 9: preparation 37.5 g/mu, metconazole 7.5 g ai./mu alone
[20] = Serial 9: preparation 100 g/mu, metconazole 20 g ai./mu alone
[21] = Serial 10: preparation 80 g/mu, metconazole 16 g ai./mu alone
[22] = Serial 11: preparation 40 g/mu, metconazole 8 g ai./mu alone
[23] = Serial 12: preparation 20 g/mu, metconazole 4 g ai./mu alone
[24] = Serial 21: metconazole 20 g ai./mu alone
[25] = Serial 22: metconazole 18 g ai./mu alone
[26] = Serial 23: metconazole 16 g ai./mu alone
[27] = Serial 24: metconazole 10 g ai./mu alone
[28] = Serial 25: metconazole 9 g ai./mu alone
[29] = Serial 26: metconazole 8 g ai./mu alone
[30] = Serial 27: metconazole 6 g ai./mu alone
[31] = Serial 28: metconazole 3 g ai./mu alone
[32] = Serial 10: preparation 30 g/mu, metconazole 6 g ai./mu alone
[33] = Serial 11: preparation 22.5 g/mu, metconazole 4.5 g ai./mu alone
[34] = Serial 12: preparation 15 g/mu, metconazole 3 g ai./mu alone

## CC1(C)CCC(Cc2ccc(Cl)cc2)C1(O)Cn1cncn1 (centres unmarked) [Metconazole]
Leaf blight [1]
  Disease Index Prevention Effect % Leaf Blight: 56.2% and 70.4% and 73.7% and 80.0%
Wheat scab [2]
  Disease Index Prevention Effect % Head Blight: 83.4%
Wheat scab [3]
  Disease Index Prevention Effect % Head Blight: 82.4%
Leaf blight [4]; Serial 8: preparation 50 g/mu, metconazole 10 g ai./mu alone
  Disease Index Prevention Effect % Leaf Blight: 72.8%
Leaf blight [4]; [19]
  Disease Index Prevention Effect % Leaf Blight: 70.6%
Leaf blight [4]; Serial 10: preparation 15 g/mu, metconazole 3 g ai./mu alone
  Disease Index Prevention Effect % Leaf Blight: 68.3%
Rust [5]
  Disease Index Prevention Effect % Rust: 63.0% and 68.2% and 76.1% and 88.2%
Powdery mildew [6]
  Disease Index Prevention Effect % Powdery Mildew: 78.2%
Wheat scab [7]; [20]
  Disease Index Prevention Effect % Head Blight: 78.2%
Wheat scab [7]; [21]
  Disease Index Prevention Effect % Head Blight: 71.2%
Wheat scab [7]; [22]
  Disease Index Prevention Effect % Head Blight: 67.1%
Wheat scab [7]; [23]
  Disease Index Prevention Effect % Head Blight: 52.0%
Powdery mildew [8]
  Disease Index Prevention Effect % Powdery Mildew: 98.2%
Rust [9]
  Disease Index Prevention Effect % Rust: 85.0%
[10]
  Grain Toxin Content: 3.86 mg of DON/Kg of grain and 3.70 mg of DON/Kg of grain and 3.09 mg of DON/Kg of grain and 3.26 mg of DON/Kg of grain
[10]; vs control
  Toxin Reduction Percentage %: 54.7% and 56.6% and 63.8% and 61.8%
Wheat scab [11]; [24]
  Disease Index Prevention Effect % Head Blight: 75.1%
Wheat scab [11]; [25]
  Disease Index Prevention Effect % Head Blight: 74.9%
Wheat scab [11]; [26]
  Disease Index Prevention Effect % Head Blight: 73.2%
Wheat scab [11]; [27]
  Disease Index Prevention Effect % Head Blight: 70.1%
Wheat scab [11]; [28]
  Disease Index Prevention Effect % Head Blight: 67.2%
Wheat scab [11]; [29]
  Disease Index Prevention Effect % Head Blight: 65.1%
Wheat scab [11]; [30]
  Disease Index Prevention Effect % Head Blight: 54.8%
Wheat scab [11]; [31]
  Disease Index Prevention Effect % Head Blight: 28.3%
[12]; [19]
  Grain Toxin Content mg of DON/kg of grain: 2.01 mg of DON/kg of grain
  Toxin Reduction Percentage %: 55.5%
[12]; [32]
  Grain Toxin Content mg of DON/kg of grain: 2.17 mg of DON/kg of grain
  Toxin Reduction Percentage %: 52.0%
[12]; [33]
  Grain Toxin Content mg of DON/kg of grain: 2.06 mg of DON/kg of grain
  Toxin Reduction Percentage %: 54.4%
[12]; [34]
  Grain Toxin Content mg of DON/kg of grain: 3.12 mg of DON/kg of grain
  Toxin Reduction Percentage %: 31.0%
[13]
  Thousand Kernel Weight: 43.2 g and 42.6 g and 39.8 g
Rust [14]; [20]
  Disease Index Prevention Effect % Rust: 84.4%
Rust [14]; [21]
  Disease Index Prevention Effect % Rust: 77.3%
Rust [14]; [22]
  Disease Index Prevention Effect % Rust: 70.6%
Rust [14]; [23]
  Disease Index Prevention Effect % Rust: 63.8%
Powdery mildew [15]
  Disease Index Prevention Effect % Powdery Mildew: 78.7% and 74.3% and 70.2% and 48.6%
Powdery mildew [16]; [32]
  Disease Index Prevention Effect % Powdery Mildew: 60.6%
Powdery mildew [16]; [33]
  Disease Index Prevention Effect % Powdery Mildew: 58.6%
Powdery mildew [16]; [34]
  Disease Index Prevention Effect % Powdery Mildew: 45.1%
Leaf blight [17]; [24]
  Disease Index Prevention Effect % Leaf Blight: 80.5%
Leaf blight [17]; [25]
  Disease Index Prevention Effect % Leaf Blight: 80.2%
Leaf blight [17]; [26]
  Disease Index Prevention Effect % Leaf Blight: 79.6%
Leaf blight [17]; [27]
  Disease Index Prevention Effect % Leaf Blight: 75.3%
Leaf blight [17]; [28]
  Disease Index Prevention Effect % Leaf Blight: 75.0%
Leaf blight [17]; [29]
  Disease Index Prevention Effect % Leaf Blight: 74.3%
Leaf blight [17]; [30]
  Disease Index Prevention Effect % Leaf Blight: 70.2%
Leaf blight [17]; [31]
  Disease Index Prevention Effect % Leaf Blight: 28.1%
Powdery mildew [18]
  Disease Index Prevention Effect % Powdery Mildew: 83.2%
